According to patent publication US11614423B2, “Transformed response potentiometric titrations” (UNIVERSITEIT ANTWERPEN, priority 2014, dated 2023):

B1: CAPBA: Chloramphenicol Binding Aptamer, sequence SEQ ID NO: 3 (nucleic acid)
DNA: AGCAGCACAGAGGTCAGATGACTTCAGTGAGTTGTCCCACGGTCGGCGAGTCGGTGGTAGCCTATGCGTGCTACCGTGAA
modifications: DNA, backbone and methylation of C not given here

How the values were obtained:
[1] = Transformed response potentiometric titration of cocaine (ligand) with titrants; type: binding; details: for Ka: 1 mM MES buffer pH 7.0, mean of n electrodes
[2] = system: Cocaine Binding Aptamer (CBA); assay: Transformed response potentiometric titration of different ligands with CBA as titrant (cross-reactivity); details: for Ka: Post-EP method, 10^−5 M ligand in 1 mM MES buffer pH 7, CBA as titrant

| Molecule | Ka ([1]; Post-EP (PEP) method) | Ka [2] | also measured |
| --- | --- | --- | --- |
| 25-mer-DNA: randomly chosen non-specific oligonucleotide, likely SEQ ID NO: 2 (DNA AAAATATCATCTTTGGTGTTTCCTA; DNA, backbone and methylation of C not given here) | 24000 M⁻¹ |  | specific interaction with cocaine (in words) ([1]; comparison of titration curves and Ka values): little or no specific interaction |
| Clc1ccc([B-](c2ccc(Cl)cc2)(c2ccc(Cl)cc2)c2ccc(Cl)cc2)cc1 [TCPB, tetrakis (4-chlorophenyl)borate] | 9e+09 M⁻¹ |  | Ka ([1]; Equivalence Point (EP) method): 3e+09 M⁻¹ |
| CN(Cc1cc(Br)cc(Br)c1N)C1CCCCC1 [bromhexine] |  | 570000 M⁻¹ |  |
| CCN(CC)CC(=O)Nc1c(C)cccc1C [lidocaine] |  | 100000 M⁻¹ |  |
| CN1C[C@H](CNC(=O)OCc2ccccc2)C[C@@H]2c3cccc4c3c(cn4C)C[C@H]21 [metergoline] |  | 3.3e+06 M⁻¹ | interaction with CBA (in words) ([2]; cross-reactivity compared with cocaine): better interaction with metergoline than with cocaine |
| CBA: Cocaine Binding Aptamer, sequence SEQ ID NO: 1, 43 bases (DNA ATCTCGGGACGACAGGATTTTCCTCAATGAAGTGGGTCGTCCC; DNA, backbone not given here) |  |  | Kd ([1]; Post-EP method, n=6 electrodes): 1100 nM |
| B1 | 47000 M⁻¹ |  |  |
